Data from publication PMC7855930, “Nontoxic Cobalt(III) Schiff Base Complexes with Broad‐Spectrum Antifungal Activity” (Chemistry (Weinheim an Der Bergstrasse, Germany), 2020).
Like-named read-outs stand apart in the source and are kept apart here.

How the values were obtained:
C. albicans ATCC 90028 = test: Antifungal MIC assay (broth microdilution in YNB); format: cell-based, Candida albicans
Description: (§1) Yeast strains: Candida albicans (ATCC 90028, NCCLS 11), Cryptococcus neoformans (ATCC 208821, H99 type strain), Candida tropicalis (ATCC 750, type strain), Candida glabrata (ATCC 90030, NCCLS 84) and Cryptococcus deuterogattii (ATCC 32609, type strain) were obtained from the American Type Culture Collection (ATCC). Cryptococcus deuterogattii (CBS 7750), Candida auris (CBS 10913) and Candida auris (CBS 12373) were obtained from the CBS‐KNAW culture collection. The strains were maintained on glycerol/YPD (yeast extract‐peptone dextrose) broth (20:80 v/v) at −80 °C.
(§2) Antifungal minimum inhibitory concentration (MIC) assay: The cobalt complexes and antifungal control compounds were serially diluted in 50 μL of Yeast Nitrogen Broth (YNB; BD, Cat No. 233520 supplemented with 2 % glucose and 10 mM ammonium sulfate) two‐fold across the wells of non‐binding surface (NBS) 96‐well plates (Corning; Cat. No. 3641). Plates were set up in quadruplicate for each strain tested, and two biological replicates were conducted on separate assay days.
(§3) Yeast strains were cultured from glycerol onto YPD (Becton Dickinson 242720) agar at 30 °C for 72 h. For each strain, a minimum of five single colonies were taken from the agar plate and dissolved in sterile water and adjusted to form a yeast suspension of 1×10^6 to 5×10^6 CFU mL^−1 (as determined by OD530). The suspension was subsequently diluted into YNB media, and added to each well of the compound containing plates, giving a final cell density of 2.5×10^3 CFU mL^−1 and a total volume of 100 μL. Plates were covered and incubated at 35 °C for 36 h without shaking.
(§4) Growth inhibition of all strains was determined visually where the MIC was recorded as the lowest compound concentration with no visible growth. Fluconazole (Sigma F8929), ketoconazole (Sigma K1003) and micafungin (Sigma SML2288) were used as internal positive inhibitor controls for every strain tested.

C. auris CBS 10913 = test: Antifungal MIC assay (broth microdilution in YNB); format: cell-based, Candida auris; details: for MIC: Candidozyma auris, CBS10913
Description: as §1, §2, §3, §4

C. auris CBS 12373 = test: Antifungal MIC assay (broth microdilution in YNB); format: cell-based, Candida auris
Description: as §1, §2, §3, §4

C. glabrata ATCC 90030 = test: Antifungal MIC assay (broth microdilution in YNB); format: cell-based, Candida glabrata
Description: as §1, §2, §3, §4

[1] = tested on: C. deuterogattii ATCC 32609; test: Antifungal MIC assay (broth microdilution in YNB); format: cell-based, Cryptococcus deuterogattii
Description: as §1, §2, §3, §4

[2] = tested on: C. deuterogattii CBS 7750; test: Antifungal MIC assay (broth microdilution in YNB); format: cell-based, Cryptococcus deuterogattii
Description: as §1, §2, §3, §4

[3] = tested on: Acinetobacter baumannii ATCC 19606; test: CO-ADD bacterial broth microdilution MIC assay; format: cell-based; details: CAMHB, 37 °C, 18 h, ≥ 80% inhibition; for MIC: Acinetobacter baumannii, ATCC19606, read-out: MIC Ab (Acinetobacter baumannii ATCC 19606)
Experimental: (§5) CO-ADD High Throughput Screening
(§6) Bacterial broth microdilution minimum inhibitory concentration (MIC) assay Bacterial strains were cultured in Cation-adjusted Mueller Hinton broth (CAMHB; Bacto Laboratories 212322) at 37 °C overnight. A sample of each culture was then diluted 40-fold in fresh CAMHB and incubated at 37 °C for 1.5-3 h. The resultant mid-log phase cultures were diluted with CAMHB (CFU/mL measured by OD600), then added to each well of the compound-containing plates (384-well non-binding surface (NBS) plates; Corning CLS3640), giving a cell density of 5 × 10^5 CFU/mL and a total volume of 50 µL. Plates were covered and incubated at 37 °C for 18 h without shaking. Inhibition of bacterial growth was determined measuring absorbance at 600 nm (OD600), using media only as negative control and bacteria without inhibitors as positive control. MIC values were determined as the lowest concentration at which the growth was inhibited at ≥ 80%. Colistin sulfate (Sigma C4461) and vancomycin HCl (Sigma 861987) were used as positive inhibitor controls on each plate for Gram-negative and Gram-positive bacteria, respectively.
(§7) Figure S1. 1H NMR (400 MHz) of [Co(ATS)(DMAP)2]NO3 (3) in DMSO-d6.
(§8) (1 picture or pasted object on this page, not shown here)

[4] = tested on: Escherichia coli ATCC 25922; test: CO-ADD bacterial broth microdilution MIC assay; format: cell-based; details: CAMHB, 37 °C, 18 h, ≥ 80% inhibition; for MIC: Escherichia coli, ATCC25922, read-out: MIC Ec (Escherichia coli ATCC 25922)
Experimental: as §5, §6, §7, §8

[5] = tested on: Pseudomonas aeruginosa ATCC 27853; test: CO-ADD bacterial broth microdilution MIC assay; format: cell-based; details: CAMHB, 37 °C, 18 h, ≥ 80% inhibition; for MIC: Pseudomonas aeruginosa, ATCC27853, read-out: MIC Pa (Pseudomonas aeruginosa ATCC 27853)
Experimental: as §5, §6, §7, §8

[6] = tested on: Staphylococcus aureus ATCC 43300 (MRSA); test: CO-ADD bacterial broth microdilution MIC assay; format: cell-based; details: for MIC: Staphylococcus aureus, read-out: MIC Sa (Staphylococcus aureus ATCC 43300, MRSA)
Experimental: as §5, §6, §7, §8

[7] = tested on: Klebsiella pneumoniae ATCC 700603 (K6; ESBL SHV-18); format: cell-based; details: 18 h
Experimental: as §5, §6, §7, §8

[8] = Candida albicans, ATCC90028, Table S1, read-out: MIC Candida albicans ATCC 90028
[9] = Candida albicans, ATCC90028, range of MICs, n=8, 35 °C, 36 h, visual, read-out: MIC C. albicans ATCC 90028
[10] = Table S1, read-out: MIC Candida auris CBS 10913
[11] = range of MICs, n=8, 35 °C, 36 h, visual, read-out: MIC C. auris CBS 10913
[12] = Candidozyma auris, CBS12373, Table S1, read-out: MIC Candida auris CBS 12373
[13] = Candidozyma auris, CBS12373, range of MICs, n=8, 35 °C, 36 h, visual, read-out: MIC C. auris CBS 12373
[14] = Nakaseomyces glabratus, ATCC90030, Table S1, read-out: MIC Candida glabrata ATCC 90030
[15] = Nakaseomyces glabratus, ATCC90030, range of MICs, n=8, 35 °C, 36 h, visual, read-out: MIC C. glabrata ATCC 90030
[16] = Cryptococcus deuterogattii, ATCC32609, Table S1, read-out: MIC Cryptococcus deuterogattii ATCC 32609
[17] = Cryptococcus deuterogattii, ATCC32609, range of MICs, n=8, 35 °C, 36 h, visual, read-out: MIC C. deuterogattii ATCC 32609
[18] = Cryptococcus deuterogattii, CBS7750, Table S1, read-out: MIC Cryptococcus deuterogattii CBS 7750
[19] = Cryptococcus deuterogattii, CBS7750, range of MICs, n=8, 35 °C, 36 h, visual, read-out: MIC C. deuterogattii CBS 7750
[20] = CAMHB, 37 °C, 18 h, ≥ 80% inhibition

Molecule | MIC (C. albicans ATCC 90028; [8]) [µg/mL] | MIC (C. albicans ATCC 90028; [9]) [µM] | MIC (C. auris CBS 10913; [10]) [µg/mL] | MIC (C. auris CBS 10913; [11]) [µM] | MIC (C. auris CBS 12373; [12]) [µg/mL] | MIC (C. auris CBS 12373; [13]) [µM] | MIC (C. glabrata ATCC 90030; [14]) [µg/mL] | MIC (C. glabrata ATCC 90030; [15]) [µM] | MIC [1, 16] [µg/mL] | MIC [1, 17] [µM] | MIC [2, 18] [µg/mL] | MIC [2, 19] [µM] | MIC [3] [µg/mL] | MIC [4] [µg/mL] | MIC [5] [µg/mL] | MIC [6, 20] [µg/mL] | MIC Kp (Klebsiella pneumoniae ATCC 700603) [7] [µg/mL] | also measured
CC(=N\NC(N)=S)/C(C)=N/NC(N)=S [Compound L1] | > 23.2 | > 100 | > 23.2 | > 100 | > 23.2 | > 100 | > 23.2 | > 100 | > 23.2 | > 100 | > 23.2 | > 100 | > 32 | > 32 | > 32 | > 32 | > 32 | –
CC(/C=C(\O)C(F)(F)F)=N\CC/N=C(C)/C=C(\O)C(F)(F)F [Compound L2] | > 33.2 | > 100 | > 33.2 | > 100 | > 33.2 | > 100 | > 33.2 | > 100 | > 33.2 | > 100 | > 33.2 | > 100 | > 32 | > 32 | > 32 | > 32 | > 32 | –
Oc1c(F)cccc1/C=N/CC/N=C/c1cccc(F)c1O [Compound L3] | > 30.4 | > 100 | > 30.4 | > 100 | > 30.4 | 100 | > 30.4 | > 100 | > 30.4 | 100 | > 30.4 | > 100 | > 32 | > 32 | > 32 | > 32 | > 32 | –
[Co(3F‐salophen)(3F‐BnNH2)2]NO3 [Compound 6] | – | – | – | – | – | – | – | – | – | – | – | – | – | – | – | – | > 32 | MIC Candida albicans ATCC 90028 (C. albicans ATCC 90028; Table S1): 69.4 µg/mL; MIC (C. albicans ATCC 90028; range of MICs, n=8, 35 °C, 36 h, visual, read-out: MIC C. albicans ATCC 90028): 100 µM; MIC Candida auris CBS 10913 (C. auris CBS 10913; Table S1): 0.03 to 0.54 µg/mL; MIC C. auris CBS 10913, lowest value ('as low as') (C. auris CBS 10913; lower end of MIC range): 0.098 µM; MIC Candida auris CBS 12373 (C. auris CBS 12373; Table S1): 17.3 µg/mL; MIC (C. auris CBS 12373; range of MICs, n=8, 35 °C, 36 h, visual, read-out: MIC C. auris CBS 12373): 25 µM; MIC Candida glabrata ATCC 90030 (C. glabrata ATCC 90030; Table S1): > 69.4 µg/mL; MIC (C. glabrata ATCC 90030; range of MICs, n=8, 35 °C, 36 h, visual, read-out: MIC C. glabrata ATCC 90030): >100 µM; MIC Cryptococcus deuterogattii ATCC 32609 ([1]; Table S1): 69.4 µg/mL; MIC ([1]; range of MICs, n=8, 35 °C, 36 h, visual, read-out: MIC C. deuterogattii ATCC 32609): 100 µM; MIC Cryptococcus deuterogattii CBS 7750 ([2]; Table S1): > 69.4 µg/mL; MIC ([2]; range of MICs, n=8, 35 °C, 36 h, visual, read-out: MIC C. deuterogattii CBS 7750): >100 µM; MIC Ab (Acinetobacter baumannii ATCC 19606) [3]: > 32 µg/mL; MIC Ec (Escherichia coli ATCC 25922) [4]: > 32 µg/mL; MIC Pa (Pseudomonas aeruginosa ATCC 27853) [5]: > 32 µg/mL; MIC Sa (Staphylococcus aureus ATCC 43300, MRSA) [6, 20]: 8 µg/mL; MIC methicillin‐resistant S. aureus (MRSA) ([6]; value in μM given in brackets in the text): 11.5 µM
